{"source": "patent US20250041429A1", "about": "“COMPOUND HAVING BTK PROTEIN DEGRADATION ACTIVITY, AND MEDICAL USES THEREOF” (UBIX THERAPEUTICS, INC., priority 2021, published 2025)", "target": "T1, BTK protein (Homo sapiens, UniProt Q06187)", "T1 construct": "endogenous in cells; host or cells: TMD-8 cells", "assay": "Measurement of BTK protein degradation ability in TMD-8 cells (Western blotting)", "format": "cell-based", "conditions": "harvested after 24 hours; for BTK degradation (%) 1 nM: compound 1 nM; for BTK degradation (%) 10 nM: compound 10 nM; for BTK degradation (%) 100 nM: compound 100 nM", "experimental": "TMD-8, RAMOS, or 293T BTK MUT (C481S) cells were treated with the synthesized compounds, and then the amount of BTK protein present in the cells was measured using Western blotting detection. The protocol for the experiment conducted using TMD-8 cells was as follows:\n[Culture] TMD-8 cells were resuspended in RPMI1640 MEDIUM (Hyclone, SH30027.01), 10% FBS (Hyclone, SV30207.02), and 1% Penicillin-streptomycin (Welgene, LS 202-02) media, and 1 mL of this suspension was seeded in a 12-well plate at a cell concentration of 1×10^6/mL.\n[Compound treatment] The 12-well plate was treated as follows: The 10 mM stock was serially diluted 1/10 with DMSO (3 μL+27 μL DMSO), and cells were treated with compounds at final concentrations of 0.1, 1, 10 μM or 0.0001, 0.001, 0.01, 0.1 μM, and harvested after 24 hours. In the negative control group, DMSO diluted 1/10 was added to the media. (3 μL DMSO+27 μL media)\n[Harvest] Each well was pipetted with a 1 mL pipette, collected in a 1.5 mL microtube, and centrifuged (500 g, 5 min, 4° C.). After removing the supernatant, it was washed with PBS and centrifuged again (500 g, 5 min, 4° C.). The supernatant was removed and the pellet was collected.\n[Cell lysis and Sample preparation] lysis buffer was prepared as follows: RIPA buffer (Biosesang, RC2038-050-00), 0.5 mM PMSF (SIGMA, P7626) and 1× Protease/Phosphatase Inhibitor (Cell signaling, 5872S) were added at 60-70 μL per well and left on ice for 30 minutes. (Vortexing at 0 and 30 minutes, respectively), followed by sonication (10 seconds pulse, 30 seconds rest, 5 cycles, 70% amplification) and centrifuge (15000 g, 15 min, 4° C.). Only the supernatant was collected and transferred to a new microtube. The samples were diluted by ½ with RIPA buffer in a 96-well plate. 200 μL of the mixture A:B=50:1 of the BCA Protein Assay Kit (iNtRON, 21071) was added each, stayed at 37° C. for 30 minutes, and cooled for 10 minutes. Afterwards, absorbance was measured at 562 nm using BioTek's SYNERGY H1 microplate reader. After making a sample by quantifying the protein using the measured value, it was boiled at 70° C. for 10 minutes. The sample buffer used at this time was a mixture of NuPAGE or Bolt 4× sample buffer (Invitrogen) and each 10× sample reducing agent according to the gel to be used. RIPA buffer was used for protein dilution.\n[Western blotting detection method] The same amount of sample was loaded on NuPAGE or Bolt Bis-tris 4-12% gradient gel and run (200 V, 35 minutes). It was transferred to a […] NC membrane using Trans-blot Turbo (BIO-RAD) (1.3 A constant, 25 V limit, 15 minutes). For blocking, skim milk or Intercept Blocking Buffer (LI-COR, 927-60001): 0.1% TBST=1:1 was used at room temperature for 1 hour. Anti BTK Rabbit (1:1,000 in 5% skim milk/0.2% TBST, size: 77 kDa, Cell signaling Technology) was reacted at 4° C. for 16 hours or at room temperature for 2 hours. Anti GAPDH Rabbit (1:10,000 in 5% BSA/0.2% TBST, size: 36 kDa, GENETEX) and Anti β-actin mouse (1:10,000 in 5% BSA/0.2% TBST, RT, size: 43 kDa, GENETEX) were reacted at room temperature for 1 hour or 3 hours. The samples were washed 3 times with 0.5% TBST for 5 minutes each. Secondary antibodies, Anti-Rabbit IgG (1:5,000 in 5% Skim milk/TBST, CST), IRDye® 800CW Goat anti-Rabbit IgG Secondary Antibody (1:10,000 in 5% skim/TBST, RT 45 min), IRDye® 680RD Goat anti-Mouse IgG Secondary Antibody (1:10,000 in 5% skim/TBST, RT 45 min) were added depending on each sample and reacted for 45 minutes on a rocker at room temperature. The samples were washed 5 times with 0.5% TBST for 5 minutes each and detected with LI-COR's Odyssey. At this time, BTK was detected using SuperSignal West Pico PLUS Chemiluminescent Substrate or SuperSignal West femto Maximum Sensitivity Substrate, and house-keeping genes were detected as is.", "data": [{"molecule": "Cc1cc(-c2ccnc(Nc3ccc(C4CN(CC5CCN(C(=O)c6cccc(NC7CCC(=O)NC7=O)c6)CC5)C4)cc3)n2)ccc1CNC(=O)N1CC(OC(C)C)C1", "note": "(stereo not drawn) [Example 101, N-(4-(2-((4-(1-((1-(3-((2,6-dioxopiperidin-3-yl)amino)benzoyl)piperidin-4-yl)methyl)azetidin-3-yl)phenyl)amino)pyrimidin-4-yl)-2-methylbenzyl)-3-isopropoxyazetidine-1-carboxamide]", "values": [{"measurement": "BTK degradation (%) 1 nM", "result": 50.5, "unit": "%"}, {"measurement": "BTK degradation (%) 10 nM", "result": 98.0, "unit": "%"}, {"measurement": "BTK degradation (%) 100 nM", "result": 100.0, "unit": "%"}]}, {"molecule": "Cc1cc(-c2ccnc(Nc3ccc(CN4CCC(CN5CCC(c6ccc(NC7CCC(=O)NC7=O)cc6)CC5)CC4)cc3)n2)ccc1CNC(=O)c1cn(C(C)(C)C)nn1", "note": "(stereo not drawn) [Example 142, 1-(tert-butyl)-N-(4-(2-((4-((4-((4-(4-((2,6-dioxopiperidin-3-yl)amino)phenyl)piperidin-1-yl)methyl)piperidin-1-yl)methyl)phenyl)amino)pyrimidin-4-yl)-2-methylbenzyl)-1H-1,2,3-triazole-4-carboxamide]", "values": [{"measurement": "BTK degradation (%) 1 nM", "result": 44.5, "unit": "%"}, {"measurement": "BTK degradation (%) 10 nM", "result": 88.5, "unit": "%"}, {"measurement": "BTK degradation (%) 100 nM", "result": 99.0, "unit": "%"}]}, {"molecule": "COc1ccc(C(=O)N2CCC(CN3CCN(c4ccc(Nc5nccc(-c6cc(F)cc(NC(=O)N7CC(OC(C)C)C7)c6C)n5)cc4)CC3)CC2)cc1N1CCC(=O)NC1=O", "note": "[Example 90, N-(3-(2-((4-(4-((1-(3-(2,4-dioxotetrahydropyrimidin-1 (2H)-yl)-4-methoxybenzoyl)piperidin-4-yl)methyl)piperazin-1-yl)phenyl)amino)pyrimidin-4-yl)-5-fluoro-2-methylphenyl)-3-isopropoxyazetidine-1-carboxamide]", "values": [{"measurement": "BTK degradation (%) 1 nM", "result": 4, "unit": "%"}, {"measurement": "BTK degradation (%) 10 nM", "result": 10, "unit": "%"}, {"measurement": "BTK degradation (%) 100 nM", "result": 37.5, "unit": "%"}]}, {"molecule": "Cc1c(NC(=O)N2CC(OC(C)C)C2)cc(F)cc1-c1ccnc(Nc2ccc(N3CCN(CC4CCN(CC(=O)Nc5cccc(NC6CCC(=O)NC6=O)c5)CC4)CC3)cc2)n1", "note": "(stereo not drawn) [Example 106, N-(3-(2-((4-(4-((1-(2-((3-((2,6-dioxopiperidin-3-yl)amino)phenyl)amino)-2-oxoethyl)piperidin-4-yl)methyl)piperazin-1-yl)phenyl)amino)pyrimidin-4-yl)-5-fluoro-2-methylphenyl)-3-isopropoxyazetidine-1-carboxamide]", "values": [{"measurement": "BTK degradation (%) 1 nM", "result": 1, "unit": "%"}, {"measurement": "BTK degradation (%) 10 nM", "result": 20, "unit": "%"}, {"measurement": "BTK degradation (%) 100 nM", "result": 76, "unit": "%"}]}, {"molecule": "Cc1cc(-c2ccnc(Nc3ccc(C4CCN(CC5CN(c6ccc7c(c6)C(=O)N(C6CCC(=O)NC6=O)C7=O)C5)CC4)cc3)n2)ccc1CNC(=O)c1cn(C(C)(C)C)nn1", "note": "(stereo not drawn) [Example 46, 1-(tert-butyl)-N-(4-(2-((4-(1-((1-(2-(2,6-dioxopiperidin-3-yl)-1,3-dioxoisoindolin-5-yl)azetidin-3-yl)methyl)piperidin-4-yl)phenyl)amino)pyrimidin-4-yl)-2-methylbenzyl)-1H-1,2,3-triazole-4-carboxamide]", "values": [{"measurement": "BTK degradation (%) 1 nM", "result": 46.5, "unit": "%"}, {"measurement": "BTK degradation (%) 10 nM", "result": 91.0, "unit": "%"}, {"measurement": "BTK degradation (%) 100 nM", "result": 98.0, "unit": "%"}]}, {"molecule": "Cc1cc(-c2ccnc(Nc3ccc(N4CCC(C(=O)N5CCC(c6cccc(NC7CCC(=O)NC7=O)c6)CC5)CC4)cc3)n2)ccc1CNC(=O)N1CC(OC(C)C)C1", "note": "(stereo not drawn) [Example 116, N-(4-(2-((4-(4-(4-(3-((2,6-dioxopiperidin-3-yl)amino)phenyl)piperidine-1-carbonyl)piperidin-1-yl)phenyl)amino)pyrimidin-4-yl)-2-methylbenzyl)-3-isopropoxyazetidine-1-carboxamide]", "values": [{"measurement": "BTK degradation (%) 1 nM", "result": 1.0, "unit": "%"}, {"measurement": "BTK degradation (%) 10 nM", "result": 56.0, "unit": "%"}, {"measurement": "BTK degradation (%) 100 nM", "result": 96.5, "unit": "%"}]}, {"molecule": "Cc1cc(-c2ccnc(Nc3ccc(N4CCC(CN5CCC(c6ccc(NC7CCC(=O)NC7=O)cc6)CC5)CC4)cc3)n2)ccc1CNC(=O)c1cn(C(C)(C)C)nn1", "note": "(stereo not drawn) [Example 136, 1-(tert-butyl)-N-(4-(2-((4-(4-((4-(4-((2,6-dioxopiperidin-3-yl)amino)phenyl)piperidin-1-yl)methyl)piperidin-1-yl)phenyl)amino)pyrimidin-4-yl)-2-methylbenzyl)-1H-1,2,3-triazole-4-carboxamide]", "values": [{"measurement": "BTK degradation (%) 1 nM", "result": 71.0, "unit": "%"}, {"measurement": "BTK degradation (%) 10 nM", "result": 95.5, "unit": "%"}, {"measurement": "BTK degradation (%) 100 nM", "result": 98.5, "unit": "%"}]}, {"molecule": "Cc1cc(-c2ccnc(Nc3ccc(N4CCN(CC5CCN(c6cccc(N7CCC(=O)NC7=O)c6)CC5)CC4)nc3)n2)ccc1CNC(=O)c1cnn(C(C)C)c1", "note": "[Example 82, N-(4-(2-((6-(4-((1-(3-(2,4-dioxotetrahydropyrimidin-1 (2H)-yl)phenyl)piperidin-4-yl)methyl)piperazin-1-yl)pyridin-3-yl)amino)pyrimidin-4-yl)-2-methylbenzyl)-1-isopropyl-1H-pyrazole-4-carboxamide]", "values": [{"measurement": "BTK degradation (%) 1 nM", "result": 32.0, "unit": "%"}, {"measurement": "BTK degradation (%) 10 nM", "result": 87.5, "unit": "%"}, {"measurement": "BTK degradation (%) 100 nM", "result": 99.5, "unit": "%"}]}, {"molecule": "Cc1cc(-c2ccnc(Nc3ccc(N4CCC(CN5CCC(c6cccc(N7CCC(=O)NC7=O)c6)CC5)CC4)cc3)n2)ccc1CNC(=O)c1cn(C(C)(C)C)nn1", "note": "[Example 138, 1-(tert-butyl)-N-(4-(2-((4-(4-((4-(3-(2,4-dioxotetrahydropyrimidin-1 (2H)-yl)phenyl)piperidin-1-yl)methyl)piperidin-1-yl)phenyl)amino)pyrimidin-4-yl)-2-methylbenzyl)-1H-1,2,3-triazole-4-carboxamide]", "values": [{"measurement": "BTK degradation (%) 1 nM", "result": 15.5, "unit": "%"}, {"measurement": "BTK degradation (%) 10 nM", "result": 71.5, "unit": "%"}, {"measurement": "BTK degradation (%) 100 nM", "result": 90.0, "unit": "%"}]}, {"molecule": "Cc1cc(-c2ccnc(Nc3ccc(N4CCN(CC5CCN(c6ccc(N7CCC(=O)NC7=O)cc6)CC5)CC4)cc3)n2)ccc1CNC(=O)N1CC(OC(C)C)C1", "note": "[Example 66, N-(4-(2-((4-(4-((1-(4-(2,4-dioxotetrahydropyrimidin-1 (2H)-yl)phenyl)piperidin-4-yl)methyl)piperazin-1-yl)phenyl)amino)pyrimidin-4-yl)-2-methylbenzyl)-3-isopropoxyazetidine-1-carboxamide]", "values": [{"measurement": "BTK degradation (%) 1 nM", "result": 28.0, "unit": "%"}, {"measurement": "BTK degradation (%) 10 nM", "result": 91.5, "unit": "%"}, {"measurement": "BTK degradation (%) 100 nM", "result": 98.5, "unit": "%"}]}, {"molecule": "Cc1cc(-c2ccnc(Nc3ccc(CN4CCN(CC5CCN(c6ccc(N7CCC(=O)NC7=O)cc6)CC5)CC4)cc3)n2)ccc1CNC(=O)c1cn(C(C)(C)C)nn1", "note": "[Example 75, 1-(tert-butyl)-N-(4-(2-((4-((4-((1-(4-(2,4-dioxotetrahydropyrimidin-1 (2H)-yl)phenyl)piperidin-4-yl)methyl)piperazin-1-yl)methyl)phenyl)amino)pyrimidin-4-yl)-2-methylbenzyl)-1H-1,2,3-triazole-4-carboxamide]", "values": [{"measurement": "BTK degradation (%) 1 nM", "result": 14.0, "unit": "%"}, {"measurement": "BTK degradation (%) 10 nM", "result": 87.0, "unit": "%"}, {"measurement": "BTK degradation (%) 100 nM", "result": 98.0, "unit": "%"}]}, {"molecule": "Cc1cc(-c2ccnc(Nc3ccc(N4CCN(CC5CCN(c6cccc(N7CCC(=O)NC7=O)c6)CC5)CC4)nc3)n2)ccc1CNC(=O)c1cnn(C(C)(C)C)c1", "note": "[Example 83, 1-(tert-butyl)-N-(4-(2-((6-(4-((1-(3-(2,4-dioxotetrahydropyrimidin-1 (2H)-yl)phenyl)piperidin-4-yl)methyl)piperazin-1-yl)pyridin-3-yl)amino)pyrimidin-4-yl)-2-methylbenzyl)-1H-pyrazole-4-carboxamide]", "values": [{"measurement": "BTK degradation (%) 1 nM", "result": 51.0, "unit": "%"}, {"measurement": "BTK degradation (%) 10 nM", "result": 96.5, "unit": "%"}, {"measurement": "BTK degradation (%) 100 nM", "result": 99.5, "unit": "%"}]}]}
